Results taken from patent publication US20210330611A1, “THERAPY FOR NEUROLOGICAL DISEASES/DISORDERS” (priority 2020, published 2021).
Structures can show the parent of a compound that is named as a salt. Where two headings read alike, the source gives them in different places.

Assays:
[1] = tested on: fibrin-induced microglia activation; experiment: Image-based assay of fibrin-induced microglia activation (HTS and dose response); type: cell-based, rat; conditions: for inhibition at 10 µM: Rattus norvegicus, Microglia, read-out: Fibrin % inhibition
[2] = tested on: LPS-induced microglia activation; experiment: Image-based assay of LPS-induced microglia activation (HTS and dose response); type: cell-based, rat
[3] = tested on: fibrin- and LPS-induced microglia activation; experiment: cells; type: cell-based, rat
[4] = tested on: primary rat microglia;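 for Fibrin % cell toxicity: share of dead cells sized under 150 µm2 at 10 µM in fibrin-stimulated microglia HTS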
[5] = tested on: primary rat microglia; remark: listed apart in the source;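 for Fibrin % cell toxicity: share of dead cells sized under 150 µm2 at 10 µM in fibrin-stimulated microglia HTS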
[6] = primary microglia HTS, fibrin stimulation, increased cell size (>800 μm^2) as marker of activation
[7] = Rattus norvegicus, Microglia, 48 h, primary microglia HTS, LPS stimulation; increased cell size (>800 μm^2) as marker of activation; read-out: LPS % inhibition
[8] = quadrant by fibrin and LPS inhibition in HTS of 1907 compounds
[9] = primary microglia HTS, fibrin stimulation, cell size >800 μm2 as marker of activation
[10] = Rattus norvegicus, Microglia, 48 h; read-out: LPS % inhibition
[11] = classification by fibrin and LPS inhibition in HTS
[12] = Rattus norvegicus, Microglia, 48 h, read-out: LPS % inhibition
[13] = primary microglia HTS, fibrin stimulation, compounds at 10 μM
[14] = Rattus norvegicus, Microglia, read-out: LPS % inhibition
[15] = primary microglia HTS, 10 μM, fibrin-stimulated, cell size >800 μm^2 as marker of activation
[16] = Rattus norvegicus, Microglia, primary microglia HTS, 10 μM, LPS-stimulated, cell size >800 μm^2 as marker of activation; read-out: LPS % inhibition
[17] = HTS of 1907 compounds, quadrant by fibrin and LPS inhibition
[18] = primary HTS, 10 μM, fibrin-stimulated primary microglia
[19] = Rattus norvegicus, Microglia, primary HTS, 10 μM, LPS-stimulated primary microglia; read-out: LPS % inhibition

Structure (SMILES) | Quadrant (FIG. 5b) [3] | Fibrin % cell toxicity ([4]; rat) [%] | LPS % cell toxicity ([5]; rat) [%] | inhibition at 10 µM [1] [%] | other results
Oc1ccc2c3c1O[C@H]1[C@@H](O)CC[C@@]4(O)[C@@H](C2)N(CC2CCC2)CC[C@]314 [Nalbuphine Hydrochloride] | Q4 | 1 | 0 | – | Fibrin % inhibition [1]: −11%; LPS % inhibition [2]: 15%
COc1c2occc2cc2ccc(=O)oc12 [Methoxsalen] | – | 0 | 0 | – | inhibition at 10 µM [1, 6]: -31%; inhibition at 10 µM [2, 7]: 14%; Quadrant (FIG. 5b) [3, 8]: Q4
CCn1cc(C(=O)O)c(=O)c2cnc(N3CCNCC3)nc21 [Pipemidic Acid] | – | 1 | 0 | – | inhibition at 10 µM [1, 9]: -27%; inhibition at 10 µM [2, 10]: 12%; Quadrant (FIG. 5b) [3, 11]: Q4
COc1ccc(CC(C)NCC(O)c2ccc(O)c(NC=O)c2)cc1 (centres unmarked) [Formoterol] | Q4 | 1 | 1 | -6 | inhibition at 10 µM [2, 12]: 32%
C=C1CC[C@H](O)C/C1=C/C=C1\CCC[C@]2(C)[C@@H]([C@H](C)/C=C/[C@H](C)C(C)C)CC[C@@H]12 [Ergocalciferol] | – | 1 | 0 | – | inhibition at 10 µM [1, 13]: -6%; inhibition at 10 µM ([2]; Rattus norvegicus, Microglia, primary microglia HTS, LPS stimulation, compounds at 10 μM; read-out: LPS % inhibition): 7%; Quadrant (FIG. 5b) ([3]; classification by fibrin and LPS inhibition, HTS at 10 μM): Q4
CCOc1ccccc1OC(c1ccccc1)C1CNCCO1.CS(=O)(=O)O (centres unmarked) [Reboxetine Mesylate] | – | – | – | – | Fibrin % inhibition [1, 9]: −33%; LPS % inhibition ([2]; primary microglia HTS, LPS stimulation, cell size >800 μm2 as marker of activation): 8%; Quadrant (FIG. 5b) [3, 11]: Q4; Fibrin % cell toxicity [4]: 1%; LPS % cell toxicity [5]: 0%
Nc1ncn([C@@H]2O[C@H](CO)[C@@H](O)[C@H]2O)c(=O)n1 [5-azacytidine, Azacitidine] | – | – | – | – | Fibrin % inhibition [1, 13]: 9%; LPS % inhibition ([2]; primary microglia HTS, LPS stimulation, compounds at 10 μM): −7%; Quadrant (FIG. 5b) ([3]; quadrant by fibrin and LPS inhibition, HTS at 10 μM): Q4; Fibrin % cell toxicity [4]: 1%; LPS % cell toxicity [5]: 0%
Nc1cc(C(Cl)=C(Cl)Cl)c(S(N)(=O)=O)cc1S(N)(=O)=O [Clorsulon] | Q4 | 0 | 0 | 0 | inhibition at 10 µM [2, 14]: 17%
CC(C)(C)NC[C@H](O)c1ccc(O)c(CO)c1 [Levosalbutamol] | – | 0 | 0 | – | inhibition at 10 µM ([1]; primary microglia HTS, fibrin stimulation, activation = cell size >800 μm2): -29%; inhibition at 10 µM ([2]; Rattus norvegicus, Microglia, 48 h, primary microglia HTS, LPS stimulation, activation = cell size >800 μm2; read-out: LPS % inhibition): 11%; Quadrant (FIG. 5b) [3, 8]: Q4
CO[C@H]1/C=C/O[C@@]2(C)Oc3c(C)c(O)c4c(c3C2=O)C2=NC3(CCN(CC(C)C)CC3)NC2=C(NC(=O)/C(C)=C\C=C\[C@H](C)[C@H](O)[C@@H](C)[C@@H](O)[C@@H](C)[C@H](OC(C)=O)[C@@H]1C)C4=O [Rifabutin] | – | 0 | 0 | – | inhibition at 10 µM [1, 9]: -51%; inhibition at 10 µM [2, 10]: 2%; Quadrant (FIG. 5b) [3, 11]: Q4
O=c1n(Cl)c(=O)n(Cl)c(=O)n1Cl [Symclosene] | – | 0 | 0 | – | inhibition at 10 µM [1, 15]: -13%; inhibition at 10 µM [2, 16]: 11%; Quadrant (FIG. 5b) [3, 17]: Q4
CN[C@H](CC(C)C)C(=O)N[C@H]1C(=O)N[C@@H](CC(N)=O)C(=O)N[C@H]2C(=O)N[C@H]3C(=O)N[C@H](C(=O)N[C@H](C(=O)O)c4cc(O)cc(O)c4-c4cc3ccc4O)[C@H](O)c3ccc(c(Cl)c3)Oc3cc2cc(c3O[C@@H]2O[C@H](CO)[C@@H](O)[C@H](O)[C@H]2O[C@H]2C[C@](C)(N)[C@H](O)[C@H](C)O2)Oc2ccc(cc2Cl)[C@H]1O [Vancomycin] | Q4 | 1 | 0 | – | Fibrin % inhibition ([1]; 10 µM): −1%; LPS % inhibition ([2]; 10 µM): −2%
O=C(O)c1cc(/N=N/c2ccc(S(=O)(=O)Nc3ccccn3)cc2)ccc1O [Sulfasalazine] | – | 0 | 0 | – | inhibition at 10 µM [1, 15]: -29%; inhibition at 10 µM [2, 16]: 13%; Quadrant (FIG. 5b) [3, 17]: Q4
CN1CCN(C2=Nc3cc(Cl)ccc3Nc3ccccc32)CC1 [Clozapine] | Q4 | 0 | 0 | 3 | inhibition at 10 µM [2, 14]: 9%
CC(=O)Nc1ccc(S(=O)(=O)c2ccc(NC(C)=O)cc2)cc1 [Acedapsone] | Q4 | 0 | 0 | 0 | inhibition at 10 µM [2, 14]: 4%
CC[C@@H](c1cccc(O)c1)[C@@H](C)CN(C)C [Tapentadol Hydrochloride] | – | 1 | 0 | – | inhibition at 10 µM [1, 15]: -12%; inhibition at 10 µM [2, 16]: 12%; Quadrant (FIG. 5b) [3, 17]: Q4

Structure (SMILES) | Quadrant (FIG. 5b) [3] | Fibrin % cell toxicity ([4]; rat) [%] | LPS % cell toxicity ([5]; rat) [%] | inhibition at 10 µM [1] [%] | other results
CCCCCOC(=O)Nc1nc(=O)n([C@@H]2O[C@H](C)[C@@H](O)[C@H]2O)cc1F [Capecitabine] | – | 1 | 1 | – | inhibition at 10 µM [1, 18]: 43%; inhibition at 10 µM [2, 19]: 25%; Quadrant (FIG. 5b) ([3]; primary HTS, 10 μM): Q4
CCN(CC)CC#CCOC(=O)C(O)(c1ccccc1)C1CCCCC1 (centres unmarked) [Oxybutynin] | Q4 | 0 | 1 | -9 | inhibition at 10 µM [2, 12]: 0%
OC(CCN1CCCCC1)(c1ccccc1)C1CCCCC1 (centres unmarked) [Trihexyphenidyl] | Q4 | 1 | 1 | 5 | inhibition at 10 µM [2, 14]: 14%
CO[C@H]1/C=C/O[C@@]2(C)Oc3c(C)c(O)c4c(O)c(c(/C=N/N5CCN(C)CC5)c(O)c4c3C2=O)NC(=O)/C(C)=C\C=C\[C@H](C)[C@H](O)[C@@H](C)[C@@H](O)[C@@H](C)[C@H](OC(C)=O)[C@@H]1C [Rifampicin] | Q4 | 1 | 0 | – | Fibrin % inhibition [1]: −21%; LPS % inhibition [2]: 7%
O=C(O)c1ccccc1 [Benzoic Acid] | Q4 | 0 | 0 | -6 | inhibition at 10 µM [2, 14]: 6%
CC1=C(/C=C/C(C)=C/C=C/C(C)=C\C(=O)O)C(C)(C)CCC1 [Isotretinoin] | – | 13 | 1 | – | inhibition at 10 µM [1, 6]: 112%; inhibition at 10 µM [2, 7]: 55%; Quadrant (FIG. 5b) [3, 8]: Q2
CC(=O)Nc1c(I)c(NC(C)=O)c(I)c(C(=O)O)c1I [Diatrizoate] | Q4 | 0 | 0 | 4 | inhibition at 10 µM [2, 14]: 5%
Cc1cc2c(s1)Nc1ccccc1N=C2N1CCN(C)CC1 [Olanzapine] | Q4 | 1 | 0 | 6 | inhibition at 10 µM [2, 12]: 9%
O=C(O)CN1C(=O)c2cccc3cccc(c23)C1=O [Alrestatin] | Q4 | 1 | 0 | 11 | inhibition at 10 µM [2, 14]: 12%
Oc1c(Cl)cc(Cl)c2cccnc12 [Chloroxine] | – | 1 | 0 | – | inhibition at 10 µM [1, 18]: -17%; inhibition at 10 µM [2, 19]: 8%; Quadrant (FIG. 5b) ([3]; primary HTS, 10 μM): Q4
Fc1ccc([C@@H]2CCNC[C@H]2COc2ccc3c(c2)OCO3)cc1 [Paroxetine] | – | 1 | 0 | – | inhibition at 10 µM [1, 9]: 38%; inhibition at 10 µM [2, 10]: 15%; Quadrant (FIG. 5b) [3, 11]: Q4
CNCCCC1c2ccccc2C=Cc2ccccc21 [Protriptyline] | Q4 | 1 | 0 | 21 | inhibition at 10 µM [2, 12]: 15%
CNC(=C[N+](=O)[O-])NCCSCc1csc(CN(C)C)n1 [Nizatidine] | – | 0 | 0 | – | inhibition at 10 µM [1, 6]: -18%; inhibition at 10 µM [2, 7]: 14%; Quadrant (FIG. 5b) [3, 8]: Q4
C=CCN1CC[C@]23c4c5ccc(O)c4O[C@H]2C(=O)CC[C@@]3(O)[C@H]1C5 [Naloxone Hydrochloride] | Q4 | 0 | 0 | – | Fibrin % inhibition [1]: −16%; LPS % inhibition [2]: 11%
Clc1ccc(COC(Cn2ccnc2)c2ccc(Cl)cc2Cl)cc1 (centres unmarked) [Econazole] | Q4 | 0 | 0 | 0 | inhibition at 10 µM [2, 14]: 18%
